Legend:
[1] = tested on: TGF-β-stimulated SMAD3 phosphorylation in BEAS-2B cells; experiment: Cellular ALK5 potency assay, inhibition of TGF-β stimulated pSMAD3 formation in BEAS-2B cells; format: cell-based; settings: Homo sapiens, inhibition of TGF-β (10 ng/mL) stimulated pSMAD3 formation, 1 hour compound incubation, read-out: BEAS2B pIC50 (converted)
Summary of the method: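 Phospho-SMAD3 was quantified by AlphaLISA in lysates of human lung epithelial BEAS-2B cells. Compound was added 1 h (37 °C, HEPES/BSA-supplemented HBSS) before a 30 min challenge with 10 ng/mL TGF-β. Values are pIC50 relative to stimulated cells without compound.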

[2] = target: T1, recombinant human ALK5 (TGF-βR1) protein (Homo sapiens, UniProt P36897); experiment: Biochemical ALK5 (TGF-βR1) assay to measure pKi (LANCE Ultra ULight kinase assay); settings: apparent pKi, converted from pIC50 using the Cheng-Prusoff equation
T1 construct: purchased Life Technologies PR9075A
T1 sequence (P36897 34-503): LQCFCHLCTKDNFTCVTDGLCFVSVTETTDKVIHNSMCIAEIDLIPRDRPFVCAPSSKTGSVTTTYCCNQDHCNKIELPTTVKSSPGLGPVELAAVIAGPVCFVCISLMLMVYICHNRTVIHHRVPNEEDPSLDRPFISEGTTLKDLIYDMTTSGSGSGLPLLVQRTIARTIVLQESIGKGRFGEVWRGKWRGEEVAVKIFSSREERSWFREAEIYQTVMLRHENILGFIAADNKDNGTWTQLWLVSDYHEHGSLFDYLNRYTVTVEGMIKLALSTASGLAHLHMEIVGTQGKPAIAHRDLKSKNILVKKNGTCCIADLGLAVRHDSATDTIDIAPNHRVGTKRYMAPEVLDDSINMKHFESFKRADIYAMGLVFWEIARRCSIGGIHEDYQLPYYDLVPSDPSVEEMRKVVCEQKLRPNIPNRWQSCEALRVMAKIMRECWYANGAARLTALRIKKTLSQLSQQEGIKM
Summary of the method: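 TR-FRET kinase format: compound dose range 10 μM–25 pM equilibrated 60 min with human ALK5 and ULight-labelled topoisomerase 2α peptide in HEPES/MgCl2 buffer pH 7.5 with DTT. Reaction started with ATP (125 μM stock, 5× final), 60 min at 37° C, stopped with EDTA/Eu-anti-phospho antibody; pKi derived from pIC50 via Cheng-Prusoff.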

Structure (SMILES) | IC50 [1] | Ki [2]
CCOC(=O)Cn1cc(-c2cnc3ccc(-c4c[nH]nc4-c4cc(Cl)ccc4F)nc3c2)nn1 [Compound 1-103, ethyl 2-[4-[6-[3-(5-chloro-2-fluoro-phenyl)-1H-pyrazol-4-yl]-1,5-naphthyridin-3-yl]triazol-1-yl]acetate] | 25.1 to 158 nM | ≤ 0.0316 nM
CNC1CCN(c2cnc3ccc(-c4nc[nH]c4-c4cc(Cl)ccc4F)nc3c2)CC1 [Compound 2-9, 1-[6-[5-(5-chloro-2-fluoro-phenyl)-1H-imidazol-4-yl]-1,5-naphthyridin-3-yl]-N-methyl-piperidin-4-amine] | 25.1 to 158 nM | ≤ 0.0316 nM
OCCn1cc(-c2cnc3ccc(-c4c[nH]nc4-c4ccc(F)c(F)c4)nc3c2)cn1 [Compound 8-21, 2-(4-(6-(3-(3,4-difluorophenyl)-1H-pyrazol-4-yl)-1,5-naphthyridin-3-yl)-1H-pyrazol-1-yl)ethan-1-ol] | ≤ 20 nM | 0.0398 to 0.316 nM
Fc1ccc(Cl)cc1-c1[nH]cnc1-c1ccc2ncc(-c3cnc4n3CCNC4)cc2n1 [Compound 2-24, 2-[5-(5-chloro-2-fluoro-phenyl)-1H-imidazol-4-yl]-7-(5,6,7,8-tetrahydroimidazo[1,2-a]pyrazin-3-yl)-1,5-naphthyridine] | 25.1 to 158 nM | 0.0398 to 0.316 nM
CC(C)N1CC[C@@H](N(C)c2cnc3ccc(-c4c[nH]nc4-c4cc(Cl)c(F)cc4F)nc3c2)C1 [Compound 6-37, (R)-6-(3-(5-chloro-2,4-difluorophenyl)-1H-pyrazol-4-yl)-N-(1-isopropylpyrrolidin-3-yl)-N-methyl-1,5-naphthyridin-3-amine] | 25.1 to 158 nM | 0.0398 to 0.316 nM
Fc1cc(F)c(-c2n[nH]cc2-c2ccc3ncc(NCC4CN5CCN4CC5)cc3n2)cc1Cl (stereo not drawn) [Compound 6-4, 6-[3-(5-chloro-2,4-difluoro-phenyl)-1H-pyrazol-4-yl]-N-(1,4-diazabicyclo[2.2.2]octan-2-ylmethyl)-1,5-naphthyridin-3-amine] | 25.1 to 158 nM | 0.0398 to 0.316 nM
NC1CCC(c2cnc3ccc(-c4c[nH]nc4-c4cc(Cl)ccc4F)nc3c2)CC1 (stereo not drawn) [Compound 1-98, 4-(6-(3-(5-chloro-2-fluorophenyl)-1H-pyrazol-4-yl)-1,5-naphthyridin-3-yl)cyclohexan-1-amine] | 200 to 1260 nM | 3.98 to 31.6 nM
CC(C)N1CCN(CCNc2cnc3ccc(-c4c[nH]nc4-c4ccc(F)c(F)c4)nc3c2)CC1 [Compound 8-1, 6-(3-(3,4-difluorophenyl)-1H-pyrazol-4-yl)-N-(2-(4-isopropylpiperazin-1-yl)ethyl)-1,5-naphthyridin-3-amine] | 25.1 to 158 nM | 3.98 to 31.6 nM
Fc1ccc(Cl)cc1-c1n[nH]cc1-c1ccc2ncc(N[C@@H]3CCNC3)cc2n1 [Compound 1-19, 6-[3-(5-chloro-2-fluoro-phenyl)-1H-pyrazol-4-yl]-N-[(3R)-pyrrolidin-3-yl]-1,5-naphthyridin-3-amine] | 25.1 to 158 nM | 0.398 to 3.16 nM
Fc1cc(F)c(-c2n[nH]cc2-c2ccc3ncc(NCCN4CCNCC4)cc3n2)cc1Cl [Compound 6-9, 6-[3-(5-chloro-2,4-difluoro-phenyl)-1H-pyrazol-4-yl]-N-(2-piperazin-1-ylethyl)-1,5-naphthyridin-3-amine] | 25.1 to 158 nM | 0.0398 to 0.316 nM
CCN1CCN(CCNc2cnc3ccc(-c4c[nH]nc4-c4cc(Cl)ccc4F)nc3c2)CC1 [Compound 1-11, 6-[3-(5-chloro-2-fluoro-phenyl)-1H-pyrazol-4-yl]-N-[2-(4-ethylpiperazin-1-yl)ethyl]-1,5-naphthyridin-3-amine] | ≤ 20 nM | 0.0398 to 0.316 nM
O=C(O)Cn1cc(-c2cnc3ccc(-c4c[nH]nc4-c4ccc(F)c(F)c4)nc3c2)cn1 [Compound 8-18, 2-[4-[6-[3-(3,4-difluorophenyl)-1H-pyrazol-4-yl]-1,5-naphthyridin-3-yl]pyrazol-1-yl]acetic acid] | 25.1 to 158 nM | 0.398 to 3.16 nM
Fc1ccc(Cl)cc1-c1[nH]cnc1-c1ccc2ncc(Nc3ccc(N4CCN(Cc5ccccc5)CC4)cn3)cc2n1 [Compound 2-27, N-[5-(4-benzylpiperazin-1-yl)-2-pyridyl]-6-[5-(5-chloro-2-fluoro-phenyl)-1H-imidazol-4-yl]-1,5-naphthyridin-3-amine] | 25.1 to 158 nM | 3.98 to 31.6 nM
Fc1cc(F)c(-c2n[nH]cc2-c2ccc3ncc(NCCN4CCCC4)cc3n2)cc1Cl [Compound 6-7, 6-[3-(5-chloro-2,4-difluoro-phenyl)-1H-pyrazol-4-yl]-N-(2-pyrrolidin-1-ylethyl)-1,5-naphthyridin-3-amine] | 25.1 to 158 nM | 0.398 to 3.16 nM
CN1CCN(C2CCN(c3cnc4ccc(-c5nc[nH]c5-c5cc(Cl)ccc5F)cc4c3)CC2)CC1 [Compound 17-7, 6-[5-(5-chloro-2-fluoro-phenyl)-1H-imidazol-4-yl]-3-[4-(4-methylpiperazin-1-yl)-1-piperidyl]quinoline] | 25.1 to 158 nM | 0.0398 to 0.316 nM
CNC(=O)C1CN(c2cnc3ccc(-c4c[nH]nc4-c4cc(Cl)c(F)cc4F)nc3c2)CCN1 (racemic) [Compound 6-25, rac-(2R)-4-[6-[3-(5-chloro-2,4-difluoro-phenyl)-1H-pyrazol-4-yl]-1,5-naphthyridin-3-yl]-N-methyl-piperazine-2-carboxamide] | 25.1 to 158 nM | 0.0398 to 0.316 nM
Fc1ccc(Cl)cc1-c1n[nH]cc1-c1ccc2ncc(NC3CNC3)cc2n1 [Compound 1-18, N-(azetidin-3-yl)-6-[3-(5-chloro-2-fluoro-phenyl)-1H-pyrazol-4-yl]-1,5-naphthyridin-3-amine] | 25.1 to 158 nM | 0.0398 to 0.316 nM
CC(C)NC(=O)[C@H]1CN(c2cnc3ccc(-c4c[nH]nc4-c4cc(Cl)ccc4F)nc3c2)CCN1 [Compound 1-66, (R)-4-(6-(3-(5-Chloro-2-fluorophenyl)-1H-pyrazol-4-yl)-1,5-naphthyridin-3-yl)-N-isopropylpiperazine-2-carboxamide] | 25.1 to 158 nM | 0.398 to 3.16 nM
CC(C)N1CCN(CCNc2cnc3ccc(-c4nc[nH]c4-c4cccc(Cl)c4)cc3c2)CC1 [Compound 24-2, 6-(5-(3-chlorophenyl)-1H-imidazol-4-yl)-N-(2-(4-isopropylpiperazin-1-yl)ethyl)quinolin-3-amine] | 25.1 to 158 nM | 0.398 to 3.16 nM
CN1CCN(c2ccc(Nc3cnc4ccc(-c5nc[nH]c5-c5cc(Cl)ccc5F)nc4c3)nc2)CC1 [Compound 2-1, 6-(5-(5-chloro-2-fluorophenyl)-1H-imidazol-4-yl)-N-(5-(4-methylpiperazin-1-yl)pyridin-2-yl)-1,5-naphthyridin-3-amine] | 25.1 to 158 nM | 0.0398 to 0.316 nM
CCN1CCC(N(C)c2cnc3ccc(-c4c[nH]nc4-c4cc(Cl)ccc4F)nc3c2)CC1 [Compound 1-38, 6-[3-(5-chloro-2-fluoro-phenyl)-1H-pyrazol-4-yl]-N-(1-ethyl-4-piperidyl)-N-methyl-1,5-naphthyridin-3-amine] | 25.1 to 158 nM | 0.398 to 3.16 nM
CN(C)C1CCN(c2cnc3ccc(-c4nc[nH]c4-c4cc(Cl)ccc4F)cc3c2)C1 (racemic) [Compound 17-5, rac-(3S)-1-[6-[5-(5-chloro-2-fluoro-phenyl)-1H-imidazol-4-yl]-3-quinolyl]-N,N-dimethyl-pyrrolidin-3-amine] | 25.1 to 158 nM | 0.0398 to 0.316 nM
C[C@@H]1CN(CCNc2cnc3ccc(-c4c[nH]nc4-c4cc(Cl)ccc4F)nc3c2)C[C@H](C)N1 [Compound 1-1, 6-(3-(5-chloro-2-fluorophenyl)-1H-pyrazol-4-yl)-N-(2-((3S,5R)-3,5-dimethylpiperazin-1-yl)ethyl)-1,5-naphthyridin-3-amine] | 25.1 to 158 nM | 0.0398 to 0.316 nM
Fc1ccc(Cl)cc1-c1[nH]cnc1-c1ccc2ncc(-c3cnn(C4CCCNC4)c3)cc2n1 (stereo not drawn) [Compound 2-18, 2-[5-(5-chloro-2-fluoro-phenyl)-1H-imidazol-4-yl]-7-[1-(3-piperidyl)pyrazol-4-yl]-1,5-naphthyridine] | 25.1 to 158 nM | 0.0398 to 0.316 nM
O=C(NCCN1CCCC1)[C@H]1CN(c2cnc3ccc(-c4c[nH]nc4-c4cc(Cl)ccc4F)nc3c2)CCN1 [Compound 1-132, (2R)-4-[6-[3-(5-chloro-2-fluoro-phenyl)-1H-pyrazol-4-yl]-1,5-naphthyridin-3-yl]-N-(2-pyrrolidin-1-ylethyl)piperazine-2-carboxamide] | 200 to 1260 nM | 0.0398 to 0.316 nM
Fc1ccc(Cl)cc1-c1n[nH]cc1-c1ccc2ncc(-c3cn(Cc4c[nH]cn4)nn3)cc2n1 [Compound 1-111, 2-[3-(5-chloro-2-fluoro-phenyl)-1H-pyrazol-4-yl]-7-[1-(1H-imidazol-4-ylmethyl)triazol-4-yl]-1,5-naphthyridine] | 25.1 to 158 nM | ≤ 0.0316 nM
CC(C)N1CCN(CCNc2cnc3ccc(-c4nc[nH]c4-c4cc(Cl)ccc4F)cc3c2)CC1 [Compound 17-3, 6-(5-(5-chloro-2-fluorophenyl)-1H-imidazol-4-yl)-N-(2-(4-isopropylpiperazin-1-yl)ethyl)quinolin-3-amine] | 25.1 to 158 nM | 0.398 to 3.16 nM

Source: patent publication US11730720B2, “ALK5 inhibitors” (THERAVANCE BIOPHARMA R&D IP, LLC, priority 2018, dated 2023)
